The term IC50 denotes the midpoint of a concentration-inhibition curve. A higher IC50 goes with weaker potency.

This passage reports IC50 results from ChEMBL document CHEMBL1159364, “Inhibition of [3H]-LSD binding to 5-HT7 receptors by flavonoids from Scutellaria lateriflora” (J Nat Prod, 2003).

The structures appear in SMILES notation. Where only a bound is given, the exact number is not on record here.

In the assay the target is 5-hydroxytryptamine receptor 7 (Homo sapiens, UniProt P34969). The assay is described as follows: Displacement of [3H]LSD from human 5HT7 receptor expressed in CHO cells. It is filed as cell-based. (In a radioligand displacement assay an active substance lowers the binding of a labelled ligand.)
Chain of 5-hydroxytryptamine receptor 7 (P34969 whole entry): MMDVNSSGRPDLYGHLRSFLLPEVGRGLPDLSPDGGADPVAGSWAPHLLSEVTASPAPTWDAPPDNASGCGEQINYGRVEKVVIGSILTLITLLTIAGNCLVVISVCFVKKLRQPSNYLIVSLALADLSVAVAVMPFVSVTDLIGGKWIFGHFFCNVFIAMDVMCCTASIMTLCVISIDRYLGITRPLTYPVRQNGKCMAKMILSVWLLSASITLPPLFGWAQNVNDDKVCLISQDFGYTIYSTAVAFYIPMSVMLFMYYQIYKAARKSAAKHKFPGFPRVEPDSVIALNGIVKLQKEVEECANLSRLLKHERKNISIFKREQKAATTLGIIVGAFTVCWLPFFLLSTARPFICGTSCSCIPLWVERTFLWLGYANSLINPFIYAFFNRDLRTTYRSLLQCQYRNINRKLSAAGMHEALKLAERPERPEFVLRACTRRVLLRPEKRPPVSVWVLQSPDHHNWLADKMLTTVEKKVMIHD
The molecule `O=c1cc(-c2ccccc2)oc2cc(O)c(O)c(O)c12` [BAICALEIN] had an IC50 of more than 350 µM. Regarding `O=C(O)[C@H]1O[C@@H](Oc2cc3oc(-c4ccccc4)cc(=O)c3c(O)c2O)[C@H](O)[C@@H](O)[C@@H]1O` [BAICALIN], the IC50 was more than 200 µM. As to `O=C1C[C@@H](c2ccccc2)Oc2cc(O[C@@H]3O[C@H](C(=O)O)[C@@H](O)[C@H](O)[C@H]3O)c(O)c(O)c21` [DIHYDROBAICALIN], the IC50 turned out to be 179 µM. In the case of `O=C(O)[C@H]1O[C@@H](Oc2cc3oc(-c4ccccc4O)cc(=O)c3c(O)c2O)[C@H](O)[C@@H](O)[C@@H]1O` [IKONNIKOSIDE I], the IC50 is 135 µM. To `O=C(O)[C@H]1O[C@@H](Oc2cc3oc(-c4ccc(O)cc4)cc(=O)c3c(O)c2O)[C@H](O)[C@@H](O)[C@@H]1O` [SCUTELLARIN] belongs 63.4 µM. As to `COc1c(O)cc(O)c2c(=O)cc(-c3ccccc3)oc12` [WOGONIN], the IC50 is more than 350 µM.
